We go through one molecule from PMC12260939, “Radiosynthesis and Evaluation of ^11C‑Labeled Imidazolyl Pyrimidine Derivatives for Positron Emission Tomography Imaging of Glycogen Synthase Kinase‑3” (ACS Pharmacology & Translational Science, 2025).

Each structure is given as a SMILES string. In brackets after ≈: the same amount, converted by molar mass.

Broadly, the Kd is the equilibrium constant for the complex coming apart. A lower Kd goes with a tighter complex. Usually solubility stands for how much of the substance goes into solution per volume. The low end stands for a poorly soluble substance, the high end for a readily soluble substance. In general, bioavailability refers to dose-corrected exposure relative to a reference, in per cent. High values mean much systemic uptake, low ones little systemic uptake. A word on the efflux ratio: it is a quotient of directional permeabilities that is used to spot active efflux. The term Ki denotes the dissociation constant of the complex between target and ligand, obtained from inhibition or displacement. As a reminder, the IC50 is the concentration that inhibits the measured activity by half.

Data set [1] addresses GSK-3. Nature of the data set: Radioligand saturation binding assay with tritiated ligands in hippocampal membranes. On the set-up: species or system Sprague–Dawley rat. The note with it: tritiated ligand, hippocampus of SD rat brains. As to the method: The pharmacology and physicochemical properties of compounds 13a–13e are depicted in Table . To evaluate binding affinities, saturation binding assays using tritiated ligands [^3H]13a, [^3H]13c, [^3H]13d, [^3H]13e (Scheme S1) were performed using the hippocampal tissue of Sprague–Dawley (SD) rat brains. As depicted in Table A, total binding (TB), nonspecific binding (NSB), and specific binding (SB) of the respective tritiated ligands were measured with increasing concentrations of the radioligands. The dissociation constant (Kd) and capacity (B max) of each radioligand were calculated to confirm their binding affinity.
For membrane preparation, hippocampal tissue from adult rats (Sprague–Dawley) was dissected out, weighed, and frozen in 0.32 M sucrose at −70 °C. On the experiment day, the tissue was thawed, homogenized in 50 mM Tris, 5 mM EDTA (pH 7.4) and then centrifuged at 48 000 xg for 15 min at +4 °C. The pellet was diluted in binding buffer (50 mM Tris, 4 mM MgCl2, 1 mM EDTA pH 7.4) to a final concentration of 2.5 mg w.w./mL. Saturation binding experiments were performed in duplicate, with each tube containing 1 mg w.w. in 0.5 mL binding buffer and 0.1 – 17 nM (11–12 concentrations) of radioligand. Nonspecific binding was measured by adding 10 μM AR-A014418. The assays were incubated for 2–3 h at room temperature and terminated by quick filtration using Whatman GF/B filters pretreated with 0.3% polyethylenimine on a Brandel cell harvester. Radioactivity was measured with a Packard Tri-Carb 2900TR liquid scintillation counter, and data were processed by nonlinear regression analyses using PRISM 4.03.

The nature of data set [2]: Solubility. The format is physicochemical. The note with it: in dry DMSO at pH = 7.4. How it is done: (§1) Multiparameter optimization (MPO) and brain/plasma concentration at steady-state (logBB) are widely used to predict BBB permeability. […] A detailed ADME/PK (absorption, distribution, metabolism, excretion and pharmacokinetics) profiling was conducted, and the results are listed in Table . […] These values meet the standards that BBB permeability is considered high if Papp A–B is ≥ 3.0 × 10^–6 cm/s and the efflux ratio is <3.0.

The nature of data set [3]: Protein binding (% free). The format is in vitro ADME. Particulars: read-out: mean Prot binding (% free).
Data set [4] is described as follows: Intrinsic clearance (CLint). The format is in vitro ADME. The note with it: cells (cell type not named); read-out: median CLint.
Data set [5] in a line: Pharmacokinetics: half-life and bioavailability. The note with it: in vivo.
Data set [6] in a line: Apparent permeability (Papp A-B) and efflux ratio. The data set is classed as in vitro ADME. How it is done:
as §1

A short description of data set [7]: Unbound fraction in brain (fu brain). The data set is classed as in vitro ADME. As to the method: as §1
Data set [8] deals with GSK-3β. As to the kind of experiment: In vitro autoradiography on rat brain tissue sections. Particulars: rat brain sections, baseline. The data set is classed as binding. How it is done:
In the next step, we performed in vitro autoradiography studies on rat brain tissue sections to investigate the binding selectivity and distribution of compounds [^3H]13a–13e (Figure ). […] These findings support the potential of this compound series for further development as GSK-3β-targeted neuroimaging probes.
In vitro autoradiography was conducted on 10 μm thick cry-cut tissue sections of rat tissue that had been thaw-mounted onto microscope slides. The brain sections were incubated in 50 mM Tris-HCl buffer at room temperature and then incubated with [^3H]-ligand for 30 min. The sections were rinsed three times for 10 min each in Tris buffer at 1 °C, followed by a quick rinse in deionized water at 1 °C, and then air-dried at room temperature with a fan. The radiolabeled sections and Amersham plastic tritium standards were then exposed to phosphoimager plates (Fuji BAS-TR2040) overnight. Blocking studies were conducted using a 1000-fold excess of the cold reference compounds, and validated GSK-3β inhibitors AR-A014418 and SB-216763. […] This micromolar concentration is consistent with established methods for GSK-3 radioligand autoradiography blocking experiments.

The test system of data set [9] is GSK-3. Nature of the data set: NHP PET imaging of brain uptake. The format is in vivo, cynomolgus monkeys. Particulars: i.v. bolus, baseline. The source says: (§2) Then, we sought to assess the in vivo PET imaging performance characteristics of [^11C]13a–e in NHPs, and the results are presented in Figure . […] One potential contributor is metabolic instability of those tracers may reduce the amount of intact tracers to cross the BBB. Another important consideration is efflux by ATP-binding cassette (ABC) transporters, such as P-glycoprotein (P-gp) that is highly expressed at the BBB and can actively pump substrates out of the CNS. To investigate whether 13a–e are P-gp efflux substrates, a P-gp inhibition study was conducted. […] To enhance brain uptake in future analogs, various medicinal chemistry strategies could be employed, such as hydrogen bond donor/acceptor optimization, fine-tuning lipophilicity, steric shielding of efflux motifs, and bioisosteric replacements. A potential limitation of this study is the lack of blood sampling during the PET scans, which precluded assessment of [^11C]13e plasma concentrations following tariquidar pretreatment. […]
(§3) PET experiments were conducted on anesthetized healthy cynomolgus monkeys, following approval from the Stockholm Animal Research Ethical Committee (Dnr. 4820/06–600). […] The monkeys’ heads were stabilized with a fixation device, and body temperature was regulated with a Bair Hugger model 505 (Arizant Healthcare, MN, USA) and continuously monitored using an esophageal thermometer. […]

Data set [10] addresses human recombinant GSK3β (Homo sapiens, UniProt P49841). As to the kind of experiment: GSK3β scintillation proximity assay (SPA), inhibition of kinase activity. The format is biochemical. How it is done:
The inhibition of GSK3β activity is assessed using a scintillation proximity assay (SPA) in a 96-well microtiter plate format. The assay utilizes purified human recombinant GSK3β enzyme (∼1 nM active), [γ-^33P]-ATP (0.04 μCi), and a biotinylated peptide substrate (Biotin-[…](PO3H2)-PQL) at a final concentration of 2 μM. Reactions are carried out in an assay buffer containing MOPS, EDTA, β-mercaptoethanol, Brij 35, glycerol, and BSA, and preincubated for 10–15 min at room temperature. Inhibitor testing is conducted in duplicate using 10 different concentrations. The kinase reaction is initiated by adding ATP (1 μM final) in the presence of 50 mM Mg(Ac)2. After a 15 min incubation at room temperature, the reaction is terminated by adding a solution (25 μL) containing 5 mM EDTA, 50 μM ATP, 0.1% Triton X-100, and 10 mg/mL streptavidin-coated SPA beads, followed by the addition of distilled water (50 μL). After a 6-h incubation, bound radioactivity is measured using a MicroBeta Trilux liquid scintillation counter (1450 MicroBeta Trilux, Wallac). Data are analyzed using nonlinear regression with variable slope (GraphPad Prism or Excel Fit), and results are reported as Ki values calculated via the Cheng-Prusoff equation.
Background: Scintillation proximity formats need no separation of bound from free tracer.

In data set [11] the target is hERG channel (Homo sapiens, UniProt Q12809). Nature of the data set: hERG channel inhibition. For orientation: Block of hERG is tested as a sign of cardiac risk.
hERG channel, sequence (Q12809 whole entry): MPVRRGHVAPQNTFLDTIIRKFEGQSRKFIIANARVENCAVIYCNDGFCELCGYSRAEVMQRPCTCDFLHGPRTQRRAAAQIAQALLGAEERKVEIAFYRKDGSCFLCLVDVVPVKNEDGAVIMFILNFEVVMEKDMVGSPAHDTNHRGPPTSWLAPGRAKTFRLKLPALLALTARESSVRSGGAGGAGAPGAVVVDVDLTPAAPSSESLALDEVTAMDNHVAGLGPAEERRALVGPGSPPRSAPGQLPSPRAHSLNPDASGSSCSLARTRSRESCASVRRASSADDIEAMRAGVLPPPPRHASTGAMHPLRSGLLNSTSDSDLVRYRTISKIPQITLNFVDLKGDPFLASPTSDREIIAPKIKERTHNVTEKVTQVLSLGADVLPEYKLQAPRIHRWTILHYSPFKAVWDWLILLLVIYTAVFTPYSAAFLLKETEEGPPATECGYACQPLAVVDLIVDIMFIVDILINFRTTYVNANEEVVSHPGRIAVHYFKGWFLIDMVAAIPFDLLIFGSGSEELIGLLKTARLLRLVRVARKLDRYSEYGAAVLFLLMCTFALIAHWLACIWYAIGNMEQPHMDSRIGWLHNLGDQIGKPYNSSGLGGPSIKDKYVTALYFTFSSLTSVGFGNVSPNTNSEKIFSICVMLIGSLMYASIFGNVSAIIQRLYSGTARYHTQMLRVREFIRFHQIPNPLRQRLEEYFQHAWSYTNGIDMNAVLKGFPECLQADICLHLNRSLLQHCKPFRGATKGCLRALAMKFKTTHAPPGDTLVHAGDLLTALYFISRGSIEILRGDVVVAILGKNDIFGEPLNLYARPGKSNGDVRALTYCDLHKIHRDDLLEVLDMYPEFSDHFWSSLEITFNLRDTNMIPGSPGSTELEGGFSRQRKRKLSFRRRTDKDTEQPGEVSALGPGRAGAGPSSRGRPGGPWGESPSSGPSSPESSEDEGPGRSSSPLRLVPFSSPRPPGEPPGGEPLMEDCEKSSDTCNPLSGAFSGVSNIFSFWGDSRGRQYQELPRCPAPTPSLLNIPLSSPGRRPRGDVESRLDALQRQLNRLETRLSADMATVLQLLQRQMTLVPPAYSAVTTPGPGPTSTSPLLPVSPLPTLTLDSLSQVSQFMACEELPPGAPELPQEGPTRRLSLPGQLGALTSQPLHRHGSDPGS
Data set [12] relates to P-glycoprotein (P-gp). Nature of the data set: P-gp inhibition PET study (tariquidar pretreatment) in NHP. The format is in vivo, cynomolgus monkeys.
Source text: as §2, §3

human recombinant GSK3β, sequence (P49841 whole entry): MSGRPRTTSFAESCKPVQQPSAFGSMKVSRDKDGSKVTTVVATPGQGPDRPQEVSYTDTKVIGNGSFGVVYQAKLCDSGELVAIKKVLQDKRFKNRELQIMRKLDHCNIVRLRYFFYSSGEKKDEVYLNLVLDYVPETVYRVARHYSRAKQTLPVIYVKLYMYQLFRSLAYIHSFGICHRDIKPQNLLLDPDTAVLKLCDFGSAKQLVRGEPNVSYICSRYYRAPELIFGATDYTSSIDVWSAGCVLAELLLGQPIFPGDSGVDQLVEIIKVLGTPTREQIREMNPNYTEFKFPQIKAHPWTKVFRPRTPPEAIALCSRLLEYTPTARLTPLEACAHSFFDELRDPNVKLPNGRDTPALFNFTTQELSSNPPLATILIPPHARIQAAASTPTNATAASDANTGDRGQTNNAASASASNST

The molecule `CC(=O)N1CCN(Cc2ccc(Nc3ncc(F)c(-c4cnc(C)n4C4CCOCC4)n3)cc2)CC1` [13e] had a Kd in [1] of 2.94 nM. In data set [2], this molecule came in with a solubility of 362 µM (≈ 179 µg/mL). The figures for the fraction unbound in [3] and in data set [7] were 0.111 and 0.12, respectively. The hepatocyte CLint in data set [4] was found to be 12 µL/min/1e6 cells. The same molecule came in with a bioavailability in data set [5] of 10.1%. For the same molecule, in [5] (read-out: mean t 1/2 (converted)), the half-life is 1.73 h. For the same molecule, the “P app A-B” value in [6] is listed as 12.7 × 10^–6 cm/s. For the same molecule, the efflux ratio in data set [6] (not told, Papp B–A/Papp A–B) came out at 1.4. The “regional binding in autoradiography” value in [8] (by brain region) was “high binding in the cortex and hippocampus, moderate uptake in the striatum and cerebellum, and relatively low binding in the thalamus”. Moreover, in [8] (tritiated ligand), the “radioactive accumulation / distribution in autoradiography” value was “highest and most regionally distinct uptake”. Besides, in data set [9], the “brain uptake (PET)” value is “relatively higher signals in the brain”. Also, in [10] (GSK-3β, calculated via the Cheng-Prusoff equation), the inhibitory constant (Ki) was 3.33 nM. Further, the 50% inhibitory concentration (IC50) in data set [10] (SPA, 1 μM ATP) stood at 4.44 nM; in [11], 20500 nM. In addition, the P-gp substrate status entry in data set [12] (NHP PET) is reported as “P-glycoprotein substrate”. The “brain uptake after P-gp inhibition” value in [12] (NHP, Tariquidar 6 mg/kg) is “significantly increased the brain uptake”.
